Data taken from ChEMBL document CHEMBL4725351, “Cyclic Derivative of Host-Defense Peptide IDR-1018 Improves Proteolytic Stability, Suppresses Inflammation, and Enhances In Vivo Activity” (J Med Chem, 2020).
In brackets after ≈: the same amount, converted by molar mass. Activity calls are given as the source filed them. No cut-off for these calls is given here. Where a SMILES comes first, the peptide text is derived from it. Bridges are numbered along the chain shown (N, C = ends).

Columns and labels:
Staphylococcus aureus [1] = assay: Antibacterial activity against methicillin-resistant Staphylococcus aureus SAP0017 measured after overnight incubation by microtitre plate based spectrophotometric method; format: functional
Staphylococcus aureus [2] = assay: Antibacterial activity against methicillin-resistant Staphylococcus aureus USA300 LAC measured after overnight incubation by microtitre plate based spectrophotometric method; format: functional
Pseudomonas aeruginosa [3] = assay: Antibacterial activity against Pseudomonas aeruginosa PA14 measured after overnight incubation by microtitre plate based spectrophotometric method; format: functional
Pseudomonas aeruginosa [4] = assay: Antibacterial activity against Pseudomonas aeruginosa PAO1 measured after overnight incubation by microtitre plate based spectrophotometric method; format: functional
Escherichia coli [5] = assay: Antibacterial activity against Escherichia coli ATTC 489 measured after overnight incubation by microtitre plate based spectrophotometric method; format: functional
Acinetobacter baumannii [6] = assay: Antibacterial activity against Acinetobacter baumannii 5015 measured after overnight incubation by microtitre plate based spectrophotometric method; format: functional
Acinetobacter baumannii [7] = assay: Antibacterial activity against Acinetobacter baumannii 17918 measured after overnight incubation by microtitre plate based spectrophotometric method; format: functional
Klebsiella pneumoniae [8] = assay: Antibacterial activity against Klebsiella pneumoniae ATTC 13883 measured after overnight incubation by microtitre plate based spectrophotometric method; format: functional
Staphylococcus aureus [9] = assay: Antibiofilm activity against methicillin-resistant Staphylococcus aureus SAP0017 incubated for 24 hrs under shaking condition by turbidometric method; format: functional
Staphylococcus aureus [10] = assay: Antibiofilm activity against methicillin-resistant Staphylococcus aureus USA300 LAC incubated for 24 hrs under shaking condition by turbidometric method; format: functional
Pseudomonas aeruginosa [11] = assay: Antibiofilm activity against Pseudomonas aeruginosa PA14 incubated for 24 hrs under shaking condition by turbidometric method; format: functional
Pseudomonas aeruginosa [12] = assay: Antibiofilm activity against Pseudomonas aeruginosa PAO1 incubated for 24 hrs under shaking condition by turbidometric method; format: functional
Escherichia coli [13] = assay: Antibiofilm activity against Escherichia coli ATTC 489 incubated for 24 hrs under shaking condition by turbidometric method; format: functional
Acinetobacter baumannii [14] = assay: Antibiofilm activity against Acinetobacter baumannii 5015 incubated for 24 hrs under shaking condition by turbidometric method; format: functional
Acinetobacter baumannii [15] = assay: Antibiofilm activity against Acinetobacter baumannii 17918 incubated for 24 hrs under shaking condition by turbidometric method; format: functional
Klebsiella pneumoniae [16] = assay: Antibiofilm activity against Klebsiella pneumoniae ATTC 13883 incubated for 24 hrs under shaking condition by turbidometric method; format: functional
Staphylococcus aureus [17] = assay: Antibiofilm activity against methicillin-resistant Staphylococcus aureus SAP0017 assessed as reduction in biofilm biomass incubated overnight by crystal violet staining assay; format: functional
Staphylococcus aureus [18] = assay: Antibiofilm activity against methicillin-resistant Staphylococcus aureus USA300 LAC assessed as reduction in biofilm biomass measured after overnight incubation by crystal violet staining assay; format: functional
Pseudomonas aeruginosa [19] = assay: Antibiofilm activity against 24 hrs preformed Pseudomonas aeruginosa PA14 biofilm assessed as reduction in biofilm viability at 7.2 to 30.3 uM by TTC assay relative to control; format: functional; conditions: dose microM 7.2-30.3
Pseudomonas aeruginosa [20] = assay: Antibiofilm activity against 24 hrs preformed Pseudomonas aeruginosa PAO1 biofilm assessed as reduction in biofilm viability at 7.2 to 30.3 uM by TTC assay relative to control; format: functional; conditions: dose microM 7.2-30.3
Escherichia coli [21] = assay: Antibiofilm activity against 24 hrs preformed Escherichia coli ATTC 489 biofilm assessed as reduction in biofilm viability at 7.2 to 30.3 uM by TTC assay relative to control; format: functional; conditions: dose microM 7.2-30.3
Acinetobacter baumannii [22] = assay: Antibiofilm activity against 24 hrs preformed Acinetobacter baumannii 5015 biofilm assessed as reduction in biofilm viability at 7.2 to 30.3 uM by TTC assay relative to control; format: functional; conditions: dose microM 7.2-30.3
Acinetobacter baumannii [23] = assay: Antibiofilm activity against 24 hrs preformed Acinetobacter baumannii 17918 biofilm assessed as reduction in biofilm viability at 7.2 to 30.3 uM by TTC assay relative to control; format: functional; conditions: dose microM 7.2-30.3
Klebsiella pneumoniae [24] = assay: Antibiofilm activity against 24 hrs preformed Klebsiella pneumoniae ATTC 13883 biofilm assessed as reduction in biofilm viability at 7.2 to 30.3 uM by TTC assay relative to control; format: functional; conditions: dose microM 7.2-30.3
Trypsin = Trypsin (Homo sapiens, UniProt P07477+P07478+P35030); assay: Stability of the compound in pH 8.2 ammonium bicarbonate buffer assessed as trypsin (unknown origin)-mediated drug degradation at 20 ug/ml measured after 120 mins by RP-HPLC analysis; format: ADME, protein assay; conditions: trypsin in ammonium bicarbonate buffer, pH 8.2, at 20 µg/mL, read-out: Drug degradation
[25] = Aggregation property of the compound in water at 1 mg/ml by turbidimetric method; format: physicochemical; conditions: buffer
[26] = Aggregation property of the compound in saline at 1 mg/ml by turbidimetric method; format: physicochemical; conditions: buffer
[27] = Aggregation property of the compound in 5% dextrose at 1 mg/ml by turbidimetric method; format: physicochemical
[28] = Aggregation property of the compound in RPMI medium with 1% FBS at 1 mg/ml by turbidimetric method; format: physicochemical
[29] = Aggregation property of the compound in sodium citrate solution at 10 mM by turbidimetric method; format: physicochemical; conditions: 10000 µM
[30] = Aggregation property of the compound in sodium phosphate solution at 10 mM by turbidimetric method; format: physicochemical; conditions: 10000 µM
[31] = Aggregation property of the compound in sodium nitrate solution at 10 mM by turbidimetric method; format: physicochemical; conditions: 10000 µM
[32] = Aggregation of the compound in human PBMC assessed as amorphous morphology at 50 ug/ml measured after 4 hrs by microscopic analysis; format: ADME, tissue-based; conditions: dose 50 µg/ml
[33] = Cytotoxicity against human PBMC assessed as reduction in cell viability at 100 ug/ml measured after 24 hrs by LDH assay; format: tissue-based; conditions: dose 100 µg/ml
PBMC [34] = assay: Immunomodulatory activity in human PBMC assessed as increase in MCP1 production at 25 ug/ml measured after overnight incubation by ELISA; format: functional, tissue-based; conditions: dose 25.0 µg/ml
PBMC [35] = assay: Immunomodulatory activity in human PBMC assessed as change in TNFalpha production at 25 ug/ml measured after overnight incubation by ELISA; format: functional, tissue-based; conditions: dose 25.0 µg/ml
PBMC [36] = assay: Immunomodulatory activity in human PBMC assessed as increase in IL-1RA production at 25 ug/ml measured after overnight incubation by ELISA; format: functional, tissue-based; conditions: dose 25.0 µg/ml
PBMC [37] = assay: Immunomodulatory activity in human PBMC assessed as reduction in LPS-induced TNFalpha production at 25 ug/ml measured after overnight incubation by ELISA; format: functional, tissue-based; conditions: dose 25.0 µg/ml
[38] = Immunomodulatory activity in human PBMC assessed as increase in LPS-induced MCP1 production at 25 ug/ml measured after overnight incubation by ELISA; format: functional; conditions: dose 25 µg/ml
[39] = Immunomodulatory activity in human PBMC assessed as increase in LPS-induced IL10 production at 25 ug/ml measured after overnight incubation by ELISA; format: functional; conditions: dose 25 µg/ml
[40] = Immunomodulatory activity in human PBMC assessed as increase in LPS-induced IL1RA production at 25 ug/ml measured after overnight incubation by ELISA; format: functional; conditions: dose 25 µg/ml
[41] = Toxicity in CD1 mouse assessed as redness under the skin at 10 mg/kg, sc measured after 16 hrs; format: organism-based; conditions: in vivo
Staphylococcus aureus [42] = assay: Antibacterial activity against Staphylococcus aureus USA300 LAC infected in CD1 mouse assessed as reduction in dermonecrosis at 7.5 mg/kg, sc administered at infection site measured after 3 days by caliper method relative to control; format: functional; parameters: scale not given: the % may be the effect or the level left; conditions: time 3 day
Staphylococcus aureus [43] = assay: Antibacterial activity against Staphylococcus aureus USA300 LAC infected in CD1 mouse assessed as dermonecrosis area at 7.5 mg/kg, sc administered at infection site measured after 3 days by caliper method (Rvb > 75 mm2); format: functional; conditions: time 3 day
Staphylococcus aureus [44] = assay: Antibacterial activity against Staphylococcus aureus USA300 LAC infected in CD1 mouse assessed as reduction in bacterial load at 7.5 mg/kg, sc administered at infection site measured after 3 days by colony counting method relative to control; format: functional; conditions: time 3 day

CC[C@H](C)[C@@H]1NC(=O)[C@H](CCCNC(=N)N)NC(=O)[C@H](C(C)C)NC(=O)[C@H](C)NC(=O)[C@H](C(C)C)NC(=O)[C@H]([C@@H](C)CC)NC(=O)[C@H](CC(C)C)NC(=O)[C@H](CCCNC(=N)N)NC(=O)[C@H](C(C)C)NC(=O)CC[C@@H](C(N)=O)NC(=O)[C@H](CCCNC(=N)N)NC(=O)[C@H](CCCNC(=N)N)NC(=O)[C@H](Cc2c[nH]c3ccccc23)NC1=O (VRLIVAVRIWRRE-NH2; lactam N-13) gave an MIC (Staphylococcus aureus [1]) of 15.1 µM (≈ 24.9 µg/mL), an MIC (Staphylococcus aureus [2]) of 15.1 µM (≈ 24.9 µg/mL) and an MIC (Pseudomonas aeruginosa [3]) of 30.3 µM (≈ 49.9 µg/mL). It also gave an MIC (Pseudomonas aeruginosa [4]) of 30.3 µM (≈ 49.9 µg/mL), an MIC (Escherichia coli [5]) of 30.3 µM (≈ 49.9 µg/mL) and an MIC (Acinetobacter baumannii [6]) of 15.1 µM (≈ 24.9 µg/mL). It also gave an MIC (Acinetobacter baumannii [7]) of 15.1 µM (≈ 24.9 µg/mL), an MIC (Klebsiella pneumoniae [8]) of 15.1 µM (≈ 24.9 µg/mL) and an MBEC (Staphylococcus aureus [9]) of 9.7 µM. The MBEC (Staphylococcus aureus [10]) was 7.2 µM, the MBEC (Pseudomonas aeruginosa [11]) was 38.8 µM and the MBEC (Pseudomonas aeruginosa [12]) was 38.8 µM. For the same compound, the MBEC (Escherichia coli [13]) was 38.8 µM, the MBEC (Acinetobacter baumannii [14]) was 15.1 µM and the MBEC (Acinetobacter baumannii [15]) was 15.1 µM. It also gave an MBEC (Klebsiella pneumoniae [16]) of 9.7 µM, an MBIC (Staphylococcus aureus [17]) of 7.2 µM and an MBIC (Staphylococcus aureus [18]) of 7.2 µM. For the same compound, the Activity (Pseudomonas aeruginosa [19]) was 70%, the Activity (Pseudomonas aeruginosa [20]) was 70% and the Activity (Escherichia coli [21]) was 70%. For the same compound, the Activity (Acinetobacter baumannii [22]) was 70%, the Activity (Acinetobacter baumannii [23]) was 70% and the Activity (Klebsiella pneumoniae [24]) was 70%. For the same compound, the metabolised at 2 h, 20 ug/ml (Trypsin) was 30%, the Activity [25] was “Not Active” and the Activity [26] was “Not Active”. The Activity [27] was “Not Active”, the Activity [28] was “Active” and the Activity [29] was “Not Active”. For the same compound, the Activity [30] was “Not Active”, the Activity [31] was “Not Active” and the Activity [32] was “Not Active”. The Activity [33] was “Toxic”, the Activity (PBMC [34]) was “Active” and the Activity (PBMC [35]) was “inactive”. For the same compound, the Activity (PBMC [36]) was “Active”, the Activity (PBMC [37]) was “Active” and the Activity [38] was 35%. For the same compound, the Activity [39] was 30%, the Activity [40] was 35% and the Activity [41] was “Toxic”. The Activity (Staphylococcus aureus [42]) was 90%, the Activity (Staphylococcus aureus [43]) was 5 mm2 and the “fold change (FC)” value (Staphylococcus aureus [44]) was 1000.
